The values below come from PubChem BioAssay (NCI).

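A five-concentration, 48-hour dose response in 96-well plates underlies each endpoint, interpolated linearly between surrounding concentrations. Abbreviation: GI50, concentration required for 50% inhibition of growth. TGI: total growth inhibition.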

What all share (assay): growth of human tumour cells (NCI), 48 h
In test [1] the test system is HCC-2998 colon.
The subject of test [2] is HCT-15 colon.
Test [3] concerns SF-268 CNS.
Test [4] relates to NCI-H460 lung.
Test [5] concerns HS 578T breast.
Test [6] has as its system MOLT-4 leukemia.
The subject of test [7] is NCI-H522 lung.
Test [8] deals with A549 NSCLC.
The subject of test [9] is SK-OV-3 ovarian.
For test [10], the system named is IGROV1 ovarian.

On to `Cn1ncc2c(Nc3ccc(Br)cc3)nc(Nc3ccc(Br)cc3)nc21`, for which the GI50 in test [1] is 1.94 µM; in test [2], 2.2 µM; in test [3], 5.11 µM; in test [4] it was 2.23 µM; in test [5], 2.61 µM; in [6], 0.346 µM. Moreover, the GI50 in test [7] is 3.44 µM; in test [8], 4.46 µM; in test [9], 10.9 µM; in test [10], 3.22 µM. The TGI in test [1] came to 3.98 µM; in [2], 5.62 µM; in test [3], 15.8 µM; in test [4], 5.23 µM; in test [5] it was 9.59 µM; in [6], 5.23 µM. Moreover, the TGI in [7] was found to be 15.7 µM; in [8] it was 30.8 µM; in [9], 23.5 µM; in test [10], 16.7 µM.
With `CN(C(=O)c1ccc(F)cc1C(F)(F)F)C1CCN(c2nnc(-c3ccnn3C)c3ccccc23)CC1`, the GI50 in [1] was over 93.3 µM; in [2], 39.9 µM; in test [3], over 74.5 µM; in test [4], 53.9 µM; in test [5], 50.8 µM; in test [6], 23.2 µM. Also, the GI50 in [7] was 16.2 µM; in test [8] it was 41 µM; in test [9], over 77.9 µM; in test [10], 57.3 µM. The TGI in test [1] was over 100 µM; in test [2], over 100 µM; in test [3] it was over 100 µM; in test [4] it was over 100 µM; in test [5], over 100 µM; in [6] it was 68.8 µM. For the same compound, the TGI in [7], in [8], in test [9] and in test [10] was over 100 µM each time.
Take `COC1=CC(c2ccc[nH]2)=N/C1=C\c1[nH]c(C)c(C(=O)CCC(=O)Oc2ccc3c(c2)CCC2C3CC[C@]3(C)C(=O)CC[C@@H]23)c1C` (stereo not given in full): the GI50 in test [1] was 16.8 µM; in test [2] it was 2.52 µM; in test [3], 5.58 µM; in test [4], 3.07 µM; in test [5], 14.2 µM; in test [6], 2.71 µM. In addition, the GI50 was 4.71 µM in [7], 2.65 µM in test [8], over 100 µM in [9] and 8.3 µM in test [10]. Besides, the TGI was over 96.1 µM in [1]; over 61.8 µM in test [2]; over 100 µM in [3]; over 100 µM in test [4]; over 100 µM in test [5]; over 100 µM in test [6]. In addition, the TGI is 60.1 µM in test [7], over 100 µM in test [8], over 100 µM in test [9] and over 100 µM in test [10].
With `CO/N=C(\c1ccccc1)c1cnn(-c2ccccc2)c1N`, the GI50 in [1], in [2], in test [3], in test [4], in test [5] and in [6] was over 25 µM in each case. For the same compound, the GI50 in [7], in test [8], in [9] and in [10] was over 25 µM each time. Further, the TGI in [1], in test [2], in test [3], in test [4], in [5] and in test [6] was over 25 µM each time. The TGI in [7], in test [8], in [9] and in test [10] was over 25 µM each time.
Consider `CC1(C)CCC(S(=O)(=O)c2ccc3c(c2)/C(=N\O)c2cc(S(=O)(=O)N4CCC(O)(c5cccc(C(F)(F)F)c5)CC4)ccc2-3)CC1`, for which the GI50 in [1] is 0.0237 µM; in test [2], 0.0694 µM; in test [3] it was 0.0198 µM; in test [4] it was 0.0261 µM; in [5] it was 0.0287 µM; in test [6], 0.0199 µM. Besides, the GI50 in [7] was 0.0198 µM; in [8], 0.034 µM; in [9] it was 0.0238 µM; in test [10] it was 0.0491 µM. Also, the TGI in [1] was 0.0545 µM; in [2], 4.52 µM; in test [3], 0.0429 µM; in test [4] it was 0.0613 µM; in test [5] it was 0.0749 µM; in test [6] it was 0.0444 µM. Moreover, the TGI in test [7] stood at 0.0452 µM; in test [8], 1.05 µM; in test [9], 0.0593 µM; in test [10] it was 1.07 µM.
As for `CCN(CC)c1ccc(NC(C(=O)c2ccccc2)c2ccccc2)cc1` (stereo not given), the GI50 in [1] is 2.81 µM; in test [2] it was 1.96 µM; in test [3], 4.23 µM; in test [4], 3.08 µM; in [5] it was 3.41 µM; in [6] it was 0.696 µM. The GI50 in test [7] is 2.3 µM; in test [8] it was 10.5 µM; in [9] it was 18.6 µM; in test [10], 4.31 µM. The TGI in test [1] stood at 8.62 µM; in [2] it was 5.31 µM; in test [3], 17.4 µM; in [4], 11.4 µM; in test [5] it was 47.1 µM; in test [6], 24.4 µM. Besides, the TGI worked out at 7.05 µM in test [7], 54 µM in test [8], 78.3 µM in test [9] and 18.1 µM in test [10].
For the compound `CCCC[C@@H]1NC(=O)[C@H](CCCCN)NC(=O)[C@H](CCCNC(=N)N)NC(=O)[C@H](CC(C)C)NC(=O)[C@@H](NC(=O)[C@H](Cc2cccc(Cl)c2)NC(=O)[C@@H]2CCCN2C(=O)[C@@H](NC(C)=O)C(C)C)CCSSC[C@@H](C(=O)N[C@@H](CCCCN)C(=O)N2CCC[C@H]2C(=O)N2CCC[C@H]2C(=O)N[C@@H](CCC(=O)O)C(N)=O)NC(=O)[C@H](Cc2ccccc2)NC(=O)[C@H](CO)NC(=O)[C@H](C)NC(=O)[C@@H]2CCCN2C1=O`, the GI50 in [1], in test [2], in test [3], in test [4], in test [5] and in [6] was over 50 µM throughout. The GI50 in test [7], in [8], in test [9] and in test [10] was over 50 µM in each case. The TGI in test [1], in [2], in test [3], in test [4], in test [5] and in test [6] was over 50 µM in each case. Besides, the TGI in test [7], in [8], in [9] and in test [10] was over 50 µM throughout.
